Source: patent publication US11691992B2 (Anacor Pharmaceuticals, Inc., priority 2017, dated 2023)

Tests used:
Assay type in all cases: cell-based
[1] = system: IL3000 T. congolense (drug sensitive) strain; test: In vitro Alamar Blue 72 h drug sensitivity assay for T. congolense; settings: Trypanosoma congolense; bloodstream form, 69 h + 3 h resazurin, 34° C.; classes A-C; read-out: IC50: I Org. Growth T. congolense IL-3000, 3 d
How it was run: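 Bloodstream-form trypanosomes in HMI medium with 20% bovine serum, exposed to compound for 69 h at 34 °C, 5% CO2, then resazurin for 3 h more. Fluorescence read at 536/588 nm. IC50 from 11-point sigmoidal dose-response curves, at least three independent runs.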

[2] = system: STIB719/ILRAD560 T. vivax (drug sensitive) strain; test: Ex vivo Alamar Blue 48 h drug sensitivity assay for T. vivax; settings: Trypanosoma vivax, ex vivo bloodstream forms from mouse, 45 hrs + 3 hrs resazurin, read-out: IC50: I Hypoxanthine Incorporation T. vivax STIB 719/ILRA D 560, 2 d
Procedure: Example 109. Ex Vivo Alamar Blue 48 h Drug Sensitivity Assay for T. vivax
[…] Test compounds were prepared as 10 mg/mL DMSO stocks for each assay run. Compounds were assayed in at least three separate, independent test runs and an 11-point dilution curve was used to determine the IC50 values. Bloodstream form trypanosomes were propagated and harvested from a highly parasitemic mouse (via cardiac puncture) and were incubated with test compounds for 45 hrs at 37° C. in a humidified atmosphere containing 5% CO2, supported in HMI media containing 20% bovine serum. […] Plates were then read using a fluorescent plate reader (Spectramax, Gemini XS, Bucher Biotec, Basel, Switzerland) using an excitation wavelength of 536 nm and an emission wavelength of 588 nm. Data points were averaged to generate sigmoidal dose-response curves and IC50 values were determined using Softmax Pro 5.2 software.

[3] = system: bloodstream forms of T. b. rhodesiense STIB 900; test: T. brucei rhodesiense STIB 900 growth inhibition assay; settings: Trypanosoma brucei; bloodstream forms, 72 h, Alamar Blue; protocol of Example 110; read-out: IC50: I Org. Growth T. brucei rhodesiense STIB 900, 3 d
How it was run: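 Bloodstream-form STIB 900 (10^4/well) were cultured in supplemented MEM with 15% horse serum and compound (90 to 0.123 μg/ml, 3-fold steps) for 72 h at 37 °C, 5% CO2. Viability was read by Alamar Blue fluorescence (ex 536/em 588 nm) after a further 2-4 h.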

[4] = system: L. infantum MHOM/MA(BE)/67 amastigotes in primary peritoneal mouse macrophages; test: Leishmania infantum intracellular amastigote assay in mouse macrophages; settings: Macrophage, 120 h, amastigotes in primary peritoneal mouse macrophages, 5 d, Giemsa staining, read-out: Inhibition of Organism Growth in Leishmania infantum MHOM/MA/BE/67, 5 d
How it was run: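 Amastigotes harvested from infected hamster spleen infected primary peritoneal mouse macrophages (5×10^5 amastigotes/well, 2 h, 37 °C). Compounds then present 5 d at 37 °C, 5% CO2. Parasite burden counted by microscopy after Giemsa staining, as % of untreated controls; IC50 from sigmoidal variable-slope fit.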

[5] = system: Trypanosoma brucei rhodesiense STIB 900 strain; test: Trypanosoma brucei rhodesiense STIB 900 screening assay; settings: STIB 900 bloodstream forms, 72 h, Alamar Blue, protocol of Example 114, read-out: Swiss TPH T b rhodesiense IC50
Procedure: Example 114. Trypanosoma brucei rhodesiense STIB 900 Screening Assay Procedure
The Trypanosoma brucei rhodesiense STIB 900 strain was isolated in 1982 from a human patient in Tanzania and after several mouse passages cloned and adapted to axenic culture conditions (Baltz, et al., EMBO Journal 4: 1273-1277 (1985); Thuita, et al., Acta Tropica 108: 6-10 (2008)). Minimum Essential Medium (50 μL) supplemented with 25 mM HEPES, 1 g/L additional glucose, 1% MEM non-essential amino acids (100×), 0.2 mM 2-mercaptoethanol, 1 mM Na-pyruvate and 15% heat inactivated horse serum was added to each well of a 96-well microtiter plate. Serial drug dilutions of seven 3-fold steps covering a range from 90 to 0.123 μg/mL were prepared. Then 10^4 bloodstream forms of T. b. rhodesiense STIB 900 in 50 μL was added to each well and the plate incubated at 37° C. under a 5% CO2 atmosphere for 72 h. 10 μL Alamar Blue (resazurin, 12.5 mg in 100 mL double-distilled water) was then added to each well and incubation continued for a further 2-4 h (Raz, et al., Acta Tropica 68: 139-47 (1997)). Then the plates were read with a Spectramax Gemini XS microplate fluorometer (Molecular Devices Corporation, Sunnyvale, Calif., USA) using an excitation wavelength of 536 nm and an emission wavelength of 588 nm. Data were transferred into the graphic program Softmax Pro (Molecular Devices), which calculated IC50 values.

| IC50 [4] | IC50 [5] | SMILES | IC50 [1] | IC50 [2] | IC50 [3] |
| --- | --- | --- | --- | --- | --- |
|  |  | COCc1c(C(=O)Nc2ccc3c(c2)B(O)OC3)nnn1-c1ccccn1 [Example 53, N-(1-hydroxy-1,3-dihydrobenzo[c][1,2]oxaborol-6-yl)-5-(methoxymethyl)-1-(pyridin-2-yl)-1H-1,2,3-triazole-4-carboxamide] | < 100 nM | < 200 nM |  |
| 3000 to 19900 nM | 100 to 250 nM | Cc1c(C(=O)Nc2ccc3c(c2)B(O)OC3)nnn1-c1ncccc1Cl [Example 82, 1-(3-Chloropyridin-2-yl)-N-(1-hydroxy-1,3-dihydrobenzo[c][1,2]oxaborol-6-yl)-5-methyl-1H-1,2,3-triazole-4-carboxamide] | < 100 nM | < 200 nM | 100 to 300 nM |
|  |  | O=C(Nc1ccc2c(c1)B(O)OC2)c1nnn(-c2ccccn2)c1CC(F)(F)F [Example 56, N-(1-hydroxy-1,3-dihydrobenzo[c][1,2]oxaborol-6-yl)-1-(pyridin-2-yl)-5-(2,2,2-trifluoroethyl)-1H-1,2,3-triazole-4-carboxamide] | 100 to 300 nM | 201 to 500 nM |  |
| 20000 to 100000 nM | 260 to 2000 nM | Cc1c(C(=O)Nc2ccc3c(c2)B(O)OC3(C)C)nnn1-c1ccccn1 [Example 85, N-(1-hydroxy-3,3-dimethyl-1,3-dihydrobenzo[c][1,2]oxaborol-6-yl)-5-methyl-1-(pyridin-2-yl)-1H-1,2,3-triazole-4-carboxamide] | 310 to 100000 nM | 510 to 10000 nM | 310 to 10000 nM |
| 3000 to 19900 nM | < 100 nM | O=C(Nc1ccc2c(c1)B(O)OC2)c1cn(-c2ccc(Cl)cn2)nn1 [Example 59, 1-(5-Chloropyridin-2-yl)-N-(1-hydroxy-1,3-dihydrobenzo[c][1,2]oxaborol-6-yl)-1H-1,2,3-triazole-4-carboxamide] | < 100 nM | 201 to 500 nM | 100 to 300 nM |
| 3000 to 19900 nM | < 100 nM | O=C(Nc1ccc2c(c1)B(O)OC2)c1cn(-c2ncccc2Cl)nn1 [Example 58, 1-(3-Chloropyridin-2-yl)-N-(1-hydroxy-1,3-dihydrobenzo[c][1,2]oxaborol-6-yl)-1H-1,2,3-triazole-4-carboxamide] | < 100 nM | < 200 nM | < 100 nM |
| 3000 to 19900 nM | < 100 nM | Cc1nn(-c2ccccc2)nc1C(=O)Nc1ccc2c(c1)B(O)OC2 [Example 72, N-(1-hydroxy-1,3-dihydrobenzo[c][1,2]oxaborol-6-yl)-5-methyl-2-phenyl-2H-1,2,3-triazole-4-carboxamide] | < 100 nM | 201 to 500 nM | 100 to 300 nM |
| 20000 to 100000 nM | 260 to 2000 nM | CC1(C)OB(O)c2cc(NC(=O)c3cn(-c4ccccn4)nn3)ccc21 [Example 62, N-(1-hydroxy-3,3-dimethyl-1,3-dihydrobenzo[c][1,2]oxaborol-6-yl)-1-(pyridin-2-yl)-1H-1,2,3-triazole-4-carboxamide] | 310 to 100000 nM | 510 to 10000 nM | 310 to 10000 nM |
| < 3000 nM | < 100 nM | Cc1c(C(=O)Nc2ccc3c(c2)B(O)OC3)nnn1-c1ccc(Cl)cn1 [Example 83, 1-(5-Chloropyridin-2-yl)-N-(1-hydroxy-1,3-dihydrobenzo[c][1,2]oxaborol-6-yl)-5-methyl-1H-1,2,3-triazole-4-carboxamide] | < 100 nM | 510 to 10000 nM | < 100 nM |
|  |  | Cc1c(C(=O)Nc2ccc3c(c2)B(O)OC3)nnn1-c1cccc(C(F)(F)F)n1 [Example 48, N-(1-hydroxy-1,3-dihydrobenzo[c][1,2]oxaborol-6-yl)-5-methyl-1-(6-(trifluoromethyl)pyridin-2-yl)-1H-1,2,3-triazole-4-carboxamide] | 100 to 300 nM | 201 to 500 nM |  |
|  |  | O=C(Nc1ccc2c(c1)B(O)OC2)c1nnn(-c2ccccn2)c1C1CC1 [Example 54, 5-cyclopropyl-N-(1-hydroxy-1,3-dihydrobenzo[c][1,2]oxaborol-6-yl)-1-(pyridin-2-yl)-1H-1,2,3-triazole-4-carboxamide] | < 100 nM | 201 to 500 nM |  |
| 20000 to 100000 nM | 260 to 2000 nM | Cc1c(C(=O)Nc2ccc3c(c2)B(O)OC3(C)C)nnn1-c1ccccc1 [Example 92, N-(1-hydroxy-3,3-dimethyl-1,3-dihydrobenzo[c][1,2]oxaborol-6-yl)-5-methyl-1-phenyl-1H-1,2,3-triazole-4-carboxamide] | 310 to 100000 nM | 510 to 10000 nM | 310 to 10000 nM |
|  |  | O=C(Nc1ccc2c(c1)B(O)OC2)c1nnn(-c2ccccn2)c1CO [Example 55, N-(1-hydroxy-1,3-dihydrobenzo[c][1,2]oxaborol-6-yl)-5-(hydroxymethyl)-1-(pyridin-2-yl)-1H-1,2,3-triazole-4-carboxamide] | < 100 nM | < 200 nM |  |
| 3000 to 19900 nM | 100 to 250 nM | Cc1c(C(=O)Nc2ccc3c(c2)B(O)OC3)nnn1-c1cccc(C(F)(F)F)c1 [Example 87, N-(1-hydroxy-1,3-dihydrobenzo[c][1,2]oxaborol-6-yl)-5-methyl-1-(3-(trifluoromethyl)phenyl)-1H-1,2,3-triazole-4-carboxamide] | 100 to 300 nM | 510 to 10000 nM | 100 to 300 nM |
| < 3000 nM | 100 to 250 nM | COc1ccccc1-n1nnc(C(=O)Nc2ccc3c(c2)B(O)OC3)c1C [Example 88, N-(1-hydroxy-1,3-dihydrobenzo[c][1,2]oxaborol-6-yl)-1-(2-methoxyphenyl)-5-methyl-1H-1,2,3-triazole-4-carboxamide] | < 100 nM | 201 to 500 nM | 100 to 300 nM |
